Structures can show the parent of a compound that is named as a salt.

The first data set in a line: in vitro. The data set is classed as in vitro ADME, human. The following applies: Table 4; human serum, 37° C. The text has this: Table 4 lists the serum half-lives for several model compounds and two representative pharmaceutical agent-chemical modifier complexes using an in vitro assay system described in the Experimental section below. Of course, the serum half-lives will vary in vivo depending upon the age and health condition of the patient. Each complex comprises a model compound or a pharmaceutical agent, a spacer group, and a chemical modifier. Many of the model compounds utilize 4-nitrophenyl(ethanol, propanol, or cyclohexanol) or 4-nitrophenylethylamine as the "model" pharmaceutical agent. A more complete listing of serum half-lives may be found in the Experimental section below.
General procedure for serum hydrolysis of pharmaceutical agent-modifier complexes
Stock solutions (6 mM) of the pharmaceutical agent-modifier complexes were prepared in ethanol (by vortexing, sonication or warming at 37° C. if necessary). If required for solubility, a drop of dimethylsulfoxide, dimethylformamide or methanol may be added. (Acetonitrile cannot be used because it deactivates the serum enzymes.)
HPLC separation methods were established for each study by dilution of the above stock solution (6 μl) in acetonitrile (1 ml) to give a 36 μM solution. Samples (10 μl) were injected onto a Nucleosil 5C8 (250×4 mmID) and guard column (11×4 mm ID) and eluted with a mobile phase of approximately 65% HPLC grade water and 35% of a solution of 0.1% trifluoroacetic acid in acetonitrile, the exact proportions being adjusted in each case to give optimum separation and run times.
Freshly defrosted human serum (3 ml, Sigma) was warmed at 37° C. for five minutes and then 60 μl of the agent-modifier complex stock solution was added with vortexing. […] The aliquots were added to 800 μl of 2% zinc sulfate solution in a 1.5 ml disposable microcentrifuge tube, vortexed immediately and centrifuged at 14,000 RPM for 3 minutes. The supernatants (10 μl) were then injected onto the HPLC and peak areas were used to determine the % remaining. Serum blanks were prepared similarly by addition of serum to the zinc sulfate solution followed by centrifugation, and time=0 samples were also prepared by adding serum to the zinc sulfate solution followed by addition of the complex and separation by centrifugation. The time=0 samples, as well as the original stock solutions, were also used to study the stability of the complex in the absence of enzyme. Half-lives were calculated using the equation
by plotting time (x) vs. ln % remaining (y) to obtain the slope (m) and the y intercept (b).
`CC(=O)OC(CC(=O)OCCCCCCCCCC(=O)OCC(=O)OC1=CC2=CC[C@H]3[C@@H]4CC[C@H](C(C)=O)[C@@]4(C)CC[C@@H]3[C@@]2(C)CC1)C[N+](C)(C)C` (stereo partly drawn) [Progesterone 3-{2-O-[10-O-(O-acetylcarnitinyl)decanoyl]glycolic acid} enol ester]: the “In vitro Half-Life” value came out at 28.9 min.

Still in this data set, the particulars now being: Table 5; human serum, 37° C.
As to `CC(=O)OC(CC(=O)OCCCCCCCCCC(=O)OCC(=O)OC1=CC2=CC[C@H]3[C@@H]4CC[C@H](C(C)=O)[C@@]4(C)CC[C@@H]3[C@@]2(C)CC1)C[N+](C)(C)C` (stereo partly drawn) [Progesterone 3-{2-O-[10-O-(O-acetylcarnitinyl)decanoyl]glycolic acid} enol ester], the “Serum Half-life” value is 28.9 min.

With `CC1OC(OC2C(C)OC(OC3C(C)OC(OC4CCC5(C)C(CCC6C5CC(OC(=O)OCOC(=O)CCCCC[N+](C)(C)C)C5(C)C(C7=CC(=O)OC7)CCC65O)C4)CC3OC(=O)OCOC(=O)CCCCC[N+](C)(C)C)CC2OC(=O)OCOC(=O)CCCCC[N+](C)(C)C)CC2OC(=O)OC12` (stereo not drawn) [digoxin-3',3",12-tris-(6-trimethylaminohexanoyloxymethyl carbonate)-3'",4""-cyclic carbonate, tribromide salt], the “Serum Half-life” value turned out to be 840 min.

Still in this data set, the particulars now being: human, serum.
As to `C#CC[N+](C)(C(C)Cc1ccccc1)C(C)OC(=O)CCC.[Br-]` (stereo not drawn) [deprenyl-N-butyroyloxy-1-ethyl, bromide salt], the “Serum Half-life” value was 28 min.

Staying with this data set, now noted: human, serum, Table 5; human serum, 37° C.; read-out: Serum Half-life (converted).
On to `COc1ccc2c(c1)c(CC(=O)OCC[N+](C)(C)C)c(C)n2C(=O)c1ccc(Cl)cc1` [(indomethacinyl)choline iodide, indomethacinylcholine iodide], for which the half-life (as a rule, how long it takes for the measured level to halve) is under 1 min.

Turning to `C[C@]12CC[C@@H]3c4ccc(O)cc4CC[C@H]3[C@@H]1CC[C@@H]2OC(=O)NCC(=O)OCC[N+](C)(C)C` [N-[3-hydroxy-estra-1,3,5(10-trien-17β-yl)oxycarbonyl] glycine (choline iodide) ester], the half-life is 1.62 min.

As for `COc1ccc2c(c1)c(CC(=O)O[C@H](CC(=O)O)C[N+](C)(C)C)c(C)n2C(=O)c1ccc(Cl)cc1` [O-indomethacinyl-(L-carnitine hydrochloride)], the half-life is over 30 min.

As to `CC(=O)OC1CC(C(=O)OCCc2ccc([N+](=O)[O-])cc2)[N+](C)(C)C1` (stereo not drawn) [betonicine-O-acetate 4-nitrophenethyl ester], the half-life is 6 min.

For `C#CC[N+](C)(COC(C)=O)C(C)Cc1ccccc1` (stereo not drawn) [deprenyl-N-acetoxymethyl, bromide salt], the half-life was 4.2 min.

Take `C#CC[N+](C)(COC(=O)c1ccccc1)C(C)Cc1ccccc1` (stereo not drawn) [deprenyl-N-benzoyloxymethyl, iodide salt]: the half-life was 5 min.

As for `C#CC[N+](C)(COC(=O)CCC)C(C)Cc1ccccc1` (stereo not drawn) [deprenyl-N-butyroyloxymethyl, iodide salt], the half-life is 0.283 min.

For the compound `C#CC[N+](C)(COC(=O)OCC)C(C)Cc1ccccc1` (stereo not drawn) [deprenyl-N-ethoxycarbonyloxymethyl, iodide salt], the half-life was 1.18 min.

In the case of `C#CC[N+](C)(COC(=O)OCCCCCCCC)C(C)Cc1ccccc1` (stereo not drawn) [deprenyl-N-octyloxycarbonyloxymethyl, iodide salt], the half-life was 0.433 min.

For the compound `C#CC[N+](C)(COC(=O)C(C)(C)C)C(C)Cc1ccccc1` (stereo not drawn) [deprenyl-N-pivaloyloxymethyl, iodide salt], the half-life is 20 min.

`C[C@]12CC[C@H](OC(=O)CCCCCN3CCOCC3)C[C@H]1CC[C@@H]1[C@@H]2CC[C@]2(C)[C@@H](C3=CC(=O)OC3)CC[C@]12O` [digitoxigenin-3-(6-morpholino-hexanoate)]: the half-life was 14900 min.

In the case of `CC(=O)O[C@H](CC(=O)O[C@H]1CC[C@@]2(C)[C@H](CC[C@@H]3[C@@H]2CC[C@]2(C)[C@@H](C4=CC(=O)OC4)CC[C@]32O)C1)C[N+](C)(C)C` [digitoxigenin-3-(O-acetyl-L-carnitine) ester, chloride salt], the half-life is 324 min.

Take `C[C@]12CC[C@H](OC(=O)OCC[N+](C)(C)C)C[C@H]1CC[C@@H]1[C@@H]2CC[C@]2(C)[C@@H](C3=CC(=O)OC3)CC[C@]12O` [digitoxigenin-3-(O-choline chloride carbonate) ester]: the half-life was 13.6 min.

Turning to `CCCCCCCCCCCCCCCC(=O)O[C@H](CC(=O)O[C@H]1CC[C@@]2(C)[C@H](CC[C@@H]3[C@@H]2CC[C@]2(C)[C@@H](C4=CC(=O)OC4)CC[C@]32O)C1)C[N+](C)(C)C` [digitoxigenin-3-(O-palmityl-L-carnitine) ester, chloride salt], the half-life is about 180 min.

Regarding `CC(=O)OC(CC(=O)NCCCCCCOC(=O)O[C@H]1[C@@H](O)C[C@H](O[C@H]2[C@@H](O)C[C@H](O[C@H]3[C@@H](O)C[C@H](O[C@H]4CC[C@@]5(C)[C@H](CC[C@@H]6[C@@H]5CC[C@]5(C)[C@@H](C7=CC(=O)OC7)CC[C@]65O)C4)O[C@@H]3C)O[C@@H]2C)O[C@@H]1C)C[N+](C)(C)C` (stereo partly drawn) [digitoxin-4"'-6-[O-(acetylcarnitinamido)hexyl]carbonate ester], the half-life is 34.8 min.

As for `C[C@H]1O[C@@H](O[C@H]2[C@@H](O)C[C@H](O[C@H]3[C@@H](O)C[C@H](O[C@H]4CC[C@@]5(C)[C@H](CC[C@@H]6[C@@H]5CC[C@]5(C)[C@@H](C7=CC(=O)OC7)CC[C@]65O)C4)O[C@@H]3C)O[C@@H]2C)C[C@H](O)[C@@H]1OC(=O)OCC[N+](C)(C)C` [digitoxin-4"'-(choline chloride) carbonate ester], the half-life was 5.3 min.

As for `C[C@H]1O[C@@H](O[C@H]2[C@@H](O)C[C@H](O[C@H]3[C@@H](O)C[C@H](O[C@H]4CC[C@@]5(C)[C@H](CC[C@@H]6[C@@H]5C[C@@H](OC(=O)OCOC(=O)CCCCC[N+](C)(C)C)[C@]5(C)[C@@H](C7=CC(=O)OC7)CC[C@]65O)C4)O[C@@H]3C)O[C@@H]2C)C[C@@H]2OC(=O)O[C@@H]21` [digoxin 12-(6-trimethylaminohexanoyloxymethyl carbonate)-3"',4"'-cyclic carbonate, bromide salt], the half-life is 168 min.

`CC1OC(OC2CCC3(C)C(CCC4C3CC(O)C3(C)C(C5=CC(=O)OC5)CCC43O)C2)CC(O)C1OC1CC(O)C(OC2CC3OC(=O)OC3C(C)O2)C(C)O1` (stereo not drawn) [digoxin-3'",4'"-cyclic carbonate]: the half-life was 0.15 min.

As for `CC1OC(OC2C(C)OC(OC3C(C)OC(OC4CCC5(C)C(CCC6C5CC(O)C5(C)C(C7=CC(=O)OC7)CCC65O)C4)CC3OC(=O)OCOC(=O)CCCCC[N+](C)(C)C)CC2OC(=O)OCOC(=O)CCCCC[N+](C)(C)C)CC2OC(=O)OC12` (stereo not drawn) [digoxin-3',3"-bis-(6-trimethylaminohexanoyloxymethyl carbonate)-3'",4'"-cyclic carbonate, bromide salt], the half-life is 600 min.

Turning to `CC1OC(OC2C(C)OC(OC3C(C)OC(OC4CCC5(C)C(CCC6C5CC(O)C5(C)C(C7=CC(=O)OC7)CCC65O)C4)CC3OC(=O)OCC[N+](C)(C)C)CC2OC(=O)OCC[N+](C)(C)C)CC2OC(=O)OC12` (stereo not drawn) [digoxin-3',3"-bis-(choline carbonate)-3'",4'"-cyclic carbonate, dibromide salt], the half-life is 2040 min.

Take `C[C@H]1O[C@@H](O[C@H]2[C@@H](O)C[C@H](O[C@H]3[C@@H](O)C[C@H](O[C@H]4CC[C@@]5(C)[C@H](CC[C@@H]6[C@@H]5C[C@@H](O)[C@]5(C)[C@@H](C7=CC(=O)OC7)CC[C@]65O)C4)O[C@@H]3C)O[C@@H]2C)C[C@H](O)[C@@H]1OC(=O)CCCOC(=O)CCC[N+](C)(C)C` [digoxin-4"'-4-(4-trimethylaminobutyroyloxy)butyrate, bromide salt]: the half-life was 420 min.

The data set is the same for the next values; noted with them: human, serum, untitled table of digoxin derivatives (position/substituent); assay not given; read-out: Half Life (converted).
Consider `C[C@H]1O[C@@H](O[C@H]2[C@@H](O)C[C@H](O[C@H]3[C@@H](O)C[C@H](O[C@H]4CC[C@@]5(C)[C@H](CC[C@@H]6[C@@H]5C[C@@H](OC(=O)OCOC(=O)CCCCC[N+](C)(C)C)[C@]5(C)[C@@H](C7=CC(=O)OC7)CC[C@]65O)C4)O[C@@H]3C)O[C@@H]2C)C[C@@H]2OC(=O)O[C@@H]21` [digoxin 12-(6-trimethylaminohexanoyloxymethyl carbonate)-3"',4"'-cyclic carbonate, bromide salt], for which the half-life was 168 min.

In the case of `CC1OC(OC2C(C)OC(OC3C(C)OC(OC4CCC5(C)C(CCC6C5CC(O)C5(C)C(C7=CC(=O)OC7)CCC65O)C4)CC3OC(=O)OCOC(=O)CCCCC[N+](C)(C)C)CC2OC(=O)OCOC(=O)CCCCC[N+](C)(C)C)CC2OC(=O)OC12` (stereo not drawn) [digoxin-3',3"-bis-(6-trimethylaminohexanoyloxymethyl carbonate)-3'",4'"-cyclic carbonate, bromide salt], the half-life was 600 min.

For the origin of these results see patent US5607691A, “Compositions and methods for enhanced drug delivery” (priority 1995, dated 1997).
